Experimental findings from patent US10392404B2, “Compounds and compositions as kinase inhibitors” (NOVARTIS AG, priority 2014, dated 2019) are described below.

pIC50: −log10 of the molar value.

Assay [1] deals with T1, C-RAF (Homo sapiens, UniProt P04049, Y340E/Y341E).
T1 construct: His tag (implied by nickel chromatography) (cleaved yes); StrepII tag (cleaved yes); made in house; host or cells: Sf9 insect cells (baculovirus), CRAF and h14-3-3 zeta co-expressed; MEK1 substrate from E. coli
Description: In vitro Raf activity determination (Alpha Screen, biotinylated kinase-dead MEK1 substrate), C-Raf. The assay is classed as biochemical. The following applies: c-Raf approximately 4 nM; ATP 1 μM; pre-incubation 60 minutes; reaction 1 hour at room temperature. An excerpt: CRAF cDNA was subcloned as full length protein, with Y340E and Y341E activating mutations, into a baculovirus expression vector for Sf9 insect cell expression. h14-3-3 zeta cDNA was subcloned into a baculovirus expression vector for SF9 insect cell expression. Sf9 cells co-expressing both proteins were lysed and subjected to immobilized nickel chromatography and eluted with Imidazole. A second column (StrepII binding column) was used and eluted with desthiobiotin. Protein Tags were removed using Prescission enzyme and the protein was further purified using a flowthrough step to remove tags.
C-Raf TR refers to a truncated C-Raf protein, a Δ1-324 deletion mutant. C-Raf FL refers to the full-length C-Raf protein.
(§1) Full length MEK1 with an inactivating K97R ATP binding site mutation is utilized as a RAF substrate. The MEK1 cDNA was subcloned with an N-terminal (his)6 tag into a vector for E. Coli expression. The MEK1 substrate was purified from E. Coli lysate by nickel affinity chromatography followed by anion exchange. The final MEK1 preparation was biotinylated (Pierce EZ-Link Sulfo-NHS-LC-Biotin) and concentrated.
(§2) Assay Materials: Assay buffer is 50 mM Tris, pH 7.5, 15 mM MgCl2, 0.01% Bovine Serum Albumin (BSA) and 1 mM dithiothreitol (DTT); Stop buffer is 60 mM ethylenediaminetetraacetic acid (EDTA) and 0.01% Tween® 20; b-Raf (V600E), active; biotinylated Mek, kinase dead; Alpha Screen detection kit (available from PerkinElmer™, #6760617R); Anti phospho-MEK1/2 (available from Cell Signaling Technology, Inc. #9121); 384 well low volume assay plates (White Greiner® plates).
(§3) Assay conditions: b-Raf (V600E) approximately 4 pM; c-Raf approximately 4 nM; biotinylated Mek, kinase dead approximately 10 nM; ATP 10 μM for BRAF (V600E) and 1 μM for CRAF; Pre-incubation time with compounds 60 minutes at room temperature; Reaction time 1 or 3 hours at room temperature.
(§4) Assay protocol: Raf and biotinylated Mek (kinase dead) were combined at 2× final concentrations in assay buffer (50 mM Tris, pH 7.5, 15 mM MgCl2, 0.01% BSA and 1 mM DTT) and dispensed […] per well in assay plates (Greiner white 384 well assay plates #781207) containing […] of 40× of a Raf kinase inhibitor test compound diluted in 100% DMSO. The plate was incubated for 60 minutes at room temperature. The Raf kinase activity reaction was started by the addition of […] per well of 2×ATP diluted in assay buffer. After 3 hours (b-Raf(V600E)) or 1 hour (c-Raf). The reactions were stopped and the phosphorylated product was measured using a rabbit anti-p-MEK (Cell Signaling, #9121) antibody and the Alpha Screen IgG (ProteinA) detection Kit (PerkinElmer #6760617R), by the addition of […] to the well of a mixture of the antibody (1:2000 dilution) and detection beads (1:2000 dilution of both beads) in Stop/bead buffer (25 mM EDTA, 50 mM Tris, pH 7.5, 0.01% Tween20). The additions were carried out under dark conditions to protect the detection beads from light. A lid was placed on top of the plate and incubated for 1 hour at room temperature, after which the luminescence was read on a PerkinElmer Envision instrument. The concentration of each compound for 50% inhibition (IC50) was calculated by non-linear regression using XL Fit data analysis software.

Assay [2] concerns the target T2, b-Raf (V600E) (Homo sapiens, UniProt P15056, V600E).
T2 construct: made in house
Description: In vitro Raf activity determination (Alpha Screen, biotinylated kinase-dead MEK1 substrate), B-Raf. The assay is classed as biochemical. The conditions noted are these: b-Raf (V600E) approximately 4 pM; ATP 10 μM; pre-incubation 60 minutes; reaction 3 hours at room temperature. On the procedure:
as §1, §2, §3, §4

T2 sequence (P15056 whole entry V600E): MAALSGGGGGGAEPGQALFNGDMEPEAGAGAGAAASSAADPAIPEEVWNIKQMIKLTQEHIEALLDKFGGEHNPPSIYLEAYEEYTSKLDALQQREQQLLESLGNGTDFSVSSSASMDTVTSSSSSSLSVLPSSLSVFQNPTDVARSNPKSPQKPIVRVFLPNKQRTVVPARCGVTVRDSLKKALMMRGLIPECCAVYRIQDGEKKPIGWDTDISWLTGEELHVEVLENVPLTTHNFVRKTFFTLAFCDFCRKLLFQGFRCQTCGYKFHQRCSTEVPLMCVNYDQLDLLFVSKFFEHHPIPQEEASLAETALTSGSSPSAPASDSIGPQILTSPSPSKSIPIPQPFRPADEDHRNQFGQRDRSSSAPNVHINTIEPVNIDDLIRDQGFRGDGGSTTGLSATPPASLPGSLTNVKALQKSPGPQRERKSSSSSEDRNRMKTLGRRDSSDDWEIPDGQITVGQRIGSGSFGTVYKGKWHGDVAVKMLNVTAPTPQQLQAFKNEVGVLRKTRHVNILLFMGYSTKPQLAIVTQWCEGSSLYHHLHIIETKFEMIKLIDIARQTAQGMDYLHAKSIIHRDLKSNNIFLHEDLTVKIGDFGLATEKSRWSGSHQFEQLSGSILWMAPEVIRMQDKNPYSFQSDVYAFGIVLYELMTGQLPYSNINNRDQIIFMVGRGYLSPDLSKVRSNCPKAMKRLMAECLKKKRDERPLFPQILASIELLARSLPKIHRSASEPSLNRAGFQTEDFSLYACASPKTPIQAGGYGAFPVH
T1 sequence (P04049 whole entry Y340E/Y341E): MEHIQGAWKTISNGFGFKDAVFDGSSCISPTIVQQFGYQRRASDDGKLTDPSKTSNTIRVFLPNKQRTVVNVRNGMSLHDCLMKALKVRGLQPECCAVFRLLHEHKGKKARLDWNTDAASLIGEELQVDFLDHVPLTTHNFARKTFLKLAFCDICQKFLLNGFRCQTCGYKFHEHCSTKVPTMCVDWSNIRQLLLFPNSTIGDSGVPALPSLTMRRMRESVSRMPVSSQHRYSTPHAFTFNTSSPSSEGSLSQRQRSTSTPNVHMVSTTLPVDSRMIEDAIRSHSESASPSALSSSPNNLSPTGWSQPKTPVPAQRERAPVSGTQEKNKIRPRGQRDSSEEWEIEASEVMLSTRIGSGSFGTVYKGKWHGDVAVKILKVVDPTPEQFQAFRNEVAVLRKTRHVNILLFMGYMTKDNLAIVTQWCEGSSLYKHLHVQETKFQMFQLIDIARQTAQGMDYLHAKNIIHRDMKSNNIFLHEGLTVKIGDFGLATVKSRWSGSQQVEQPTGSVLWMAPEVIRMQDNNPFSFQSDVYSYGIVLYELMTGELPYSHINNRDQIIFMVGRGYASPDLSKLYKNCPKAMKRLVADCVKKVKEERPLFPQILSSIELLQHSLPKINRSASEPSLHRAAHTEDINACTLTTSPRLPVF
T1 sequence (P63104 whole entry partner): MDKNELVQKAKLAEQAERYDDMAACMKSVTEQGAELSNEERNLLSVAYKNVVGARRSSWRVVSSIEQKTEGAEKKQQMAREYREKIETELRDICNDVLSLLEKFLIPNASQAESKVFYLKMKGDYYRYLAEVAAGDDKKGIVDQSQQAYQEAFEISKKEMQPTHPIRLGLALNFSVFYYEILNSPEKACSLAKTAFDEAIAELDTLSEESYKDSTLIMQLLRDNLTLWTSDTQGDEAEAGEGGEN

As to `Cc1ncc(NC(=O)c2cccc(C(F)(F)F)n2)cc1-c1cnc(C2CCOCC2)c(C#N)c1` [Example 141, N-(5′-cyano-2-methyl-6′-(tetrahydro-2H-pyran-4-yl)-[3,3′-bipyridin]-5-yl)-6-(trifluoromethyl) picolinamide], the pIC50 was 8.29 in assay [1] and 7.25 in assay [2].

Consider `Cc1nn(C)cc1C(=O)Nc1cnc(C)c(-c2cnc(N(C)C)c(C#N)c2)c1` [Example 264, N-(5′-cyano-6′-(dimethylamino)-2-methyl-[3,3′-bipyridin]-5-yl)-1,3-dimethyl-1H-pyrazole-4-carboxamide], for which the figures for the negative logarithm of the IC50 (pIC50) in assay [1] and in assay [2] were 6.83 and 5.71, respectively.

On to `Cc1ncc(NC(=O)c2ccnc(C(C)(C)C#N)c2)cc1-c1cnc(-c2ccncc2)c(C#N)c1` [Example 107], for which the figures for the negative logarithm of the IC50 (pIC50) in assay [1] and in assay [2] were 8.67 and 8.04, respectively.

In the case of `Cc1ccc(NC(=O)c2ccnc(C3CC3)c2)cc1-c1cnc(N2CCOCC2)c(C#N)c1` [Example 155, N-(3-(5-cyano-6-morpholinopyridin-3-yl)-4-methylphenyl)-2-cyclopropyl-isonicotinamide], the figures for the pIC50 in assay [1] and in assay [2] were 10.40 and 9.58, respectively.

As to `CNc1ncc(-c2cc(C(=O)Nc3cccc(C(F)(F)F)c3)ccc2C)cc1C#N` [Example 7, 3-(5-cyano-6-(methylamino)pyridin-3-yl)-4-methyl-N-(3-(trifluoromethyl)phenyl) benzamide], the negative-log IC50 (pIC50) was 9.25 in assay [1] and 8.35 in assay [2].

As for `Cc1ncc(NC(=O)c2ccnc(C(F)(F)F)c2)cc1-c1cnc(N2CC(C)(O)C2)c(C#N)c1` [Example 180, N-(5′-cyano-6′-(3-hydroxy-3-methylazetidin-1-yl)-2-methyl-[3,3′-bipyridin]-5-yl)-2-(trifluoromethyl) isonicotinamide], the figures for the negative-log IC50 (pIC50) in assay [1] and in assay [2] were 8.88 and 8.07, respectively.

Regarding `Cc1ncc(NC(=O)c2cc(C(F)(F)F)ccn2)cc1-c1cnc(N2CCOCC2)c(C#N)c1` [Example 223, N-(5′-cyano-2-methyl-6′-morpholino-[3,3′-bipyridin]-5-yl)-4-(trifluoromethyl) picolinamide], the negative logarithm of the IC50 (pIC50) in assay [1] is 9.52; in assay [2], 9.00.

As for `Cc1ncc(NC(=O)c2ccnc(C(F)(F)F)c2)cc1-c1cnc(-c2cn(C)nc2C)c(C#N)c1` [Example 111, N-(5′-cyano-6′-(1,3-dimethyl-1H-pyrazol-4-yl)-2-methyl-[3,3′-bipyridin]-5-yl)-2-(trifluoromethyl) isonicotinamide], the negative logarithm of the IC50 (pIC50) is 9.40 in assay [1] and 8.84 in assay [2].

For the molecule `Cc1ncc(NC(=O)c2ccnc(C(C)(C)C#N)c2)cc1-c1cnc(NC2CCOCC2)c(C#N)c1` [Example 72, N-(5′-cyano-2-methyl-6′-((tetrahydro-2H-pyran-4-yl)amino)-[3,3′-bipyridin]-5-yl)-2-(2-cyanopropan-2-yl)isonicotinamide], the pIC50 in assay [1] is 8.82; in assay [2], 8.19.

Take `Cc1ncc(NC(=O)c2ccnc(C(C)(C)C#N)c2)cc1-c1cnc(NC2CCOC2)c(C#N)c1` (stereo in doubt) [Example 78a, (S)-N-(5′-cyano-2-methyl-6′-((tetrahydrofuran-3-yl)amino)-[3,3′-bipyridin]-5-yl)-2-(2-cyanopropan-2-yl)isonicotinamide]: the pIC50 in assay [1] was 8.50; in assay [2] it was 7.91.

Regarding `CCCNc1ncc(-c2cc(NC(=O)c3cccc(C(F)(F)F)c3)ccc2C)cc1C#N` [Example 39, N-(3-(5-cyano-6-(propylamino)pyridin-3-yl)-4-methylphenyl)-3-(trifluoromethyl) benzamide], the results for the negative logarithm of the IC50 (pIC50) in assay [1] and in assay [2] were 9.37 and 8.40, respectively.

As to `Cc1ncc(NC(=O)c2cccc(C(F)(F)F)c2)cc1-c1cnc(N2CC(O)C2)c(C#N)c1` [Example 67, N-(5′-cyano-6′-(3-hydroxyazetidin-1-yl)-2-methyl-[3,3′-bipyridin]-5-yl)-3-(trifluoromethyl) benzamide], the pIC50 is 9.65 in assay [1] and 8.91 in assay [2].

Take `Cc1ncc(NC(=O)c2ccnc(C(C)(C)O)c2)cc1-c1cnc(NC2CCOCC2)c(C#N)c1` [Example 170, N-(5′-cyano-2-methyl-6′-((tetrahydro-2H-pyran-4-yl)amino)-[3,3′-bipyridin]-5-yl)-2-(2-hydroxypropan-2-yl)isonicotinamide]: the pIC50 is 8.50 in assay [1] and 7.92 in assay [2].

Regarding `Cc1ccc(NC(=O)c2cnnc(C(C)(C)C#N)c2)cc1-c1cnc(N2CCNCC2)c(C#N)c1` [Example 211, N-(3-(5-cyano-6-(piperazin-1-yl)pyridin-3-yl)-4-methylphenyl)-6-(2-cyanopropan-2-yl)pyridazine-4-carboxamide], the pIC50 in assay [1] was 9.05; in assay [2] it was 8.51.

Consider `COc1ncc(-c2cc(NC(=O)c3ccnc(C(C)(C)C#N)c3)ccc2C)cc1C#N` [Example 36, N-(3-(5-cyano-6-methoxypyridin-3-yl)-4-methylphenyl)-2-(2-cyanopropan-2-yl)isonicotinamide], for which the values for the pIC50 in assay [1] and in assay [2] were 9.32 and 8.56, respectively.

On to `Cc1ncc(NC(=O)c2cc(C3CC3)on2)cc1-c1cnc(N(C)C)c(C#N)c1` [Example 262, N-(5′-cyano-6′-(dimethylamino)-2-methyl-[3,3′-bipyridin]-5-yl)-5-cyclopropylisoxazole-3-carboxamide], for which the negative logarithm of the IC50 (pIC50) is 8.67 in assay [1] and 7.96 in assay [2].

As to `Cc1ccc(NC(=O)c2ccnc(C(C)(C)C#N)c2)cc1-c1cnc(N(C)C)c(C#N)c1` [Example 16, N-(3-(5-cyano-6-(dimethylamino)pyridin-3-yl)-4-methylphenyl)-2-(2-cyanopropan-2-yl)isonicotinamide], the values for the pIC50 in assay [1] and in assay [2] were 9.67 and 8.81, respectively.

Consider `Cc1ncc(NC(=O)c2cnnc(C(F)(F)F)c2)cc1-c1cnc(C2CCOCC2)c(C#N)c1` [Example 144, N-(5′-cyano-2-methyl-6′-(tetrahydro-2H-pyran-4-yl)-[3,3′-bipyridin]-5-yl)-6-(trifluoromethyl) pyridazine-4-carboxamide], for which the figures for the pIC50 in assay [1] and in assay [2] were 7.90 and 7.12, respectively.

With `COc1ncc(-c2cc(NC(=O)c3cccc(C(F)(F)F)c3)ccc2C)cc1C#N` [Example 37, N-(3-(5-cyano-6-methoxypyridin-3-yl)-4-methylphenyl)-3-(trifluoromethyl) benzamide], the pIC50 in assay [1] was 9.80; in assay [2], 8.88.

Turning to `Cc1ccc(NC(=O)c2cc(C(C)(C)N)cc(C(F)(F)F)c2)cc1-c1cnc(-c2cnn(C)c2)c(C#N)c1` [Example 273, 3-(2-aminopropan-2-yl)-N-(3-(5-cyano-6-(1-methyl-1H-pyrazol-4-yl)pyridin-3-yl)-4-methylphenyl)-5-(trifluoromethyl) benzamide], the negative-log IC50 (pIC50) in assay [1] is 9.00; in assay [2] it was 8.40.

In the case of `Cc1ncc(NC(=O)c2ccnc(C(C)(C)F)c2)cc1-c1cnc(N2CC(C)(O)C2)c(C#N)c1` [Example 193, N-(5′-cyano-6′-(3-hydroxy-3-methylazetidin-1-yl)-2-methyl-[3,3′-bipyridin]-5-yl)-2-(2-fluoropropan-2-yl)isonicotinamide], the negative-log IC50 (pIC50) in assay [1] is 8.76; in assay [2] it was 8.10.

Regarding `Cc1ncc(NC(=O)c2ccnc(C(F)(F)F)c2)cc1-c1cnc(N2CCS(=O)(=O)CC2)c(C#N)c1` [Example 86, N-(5′-cyano-6′-(1,1-dioxidothiomorpho-lino)-2-methyl-[3,3′-bipyridin]-5-yl)-2-(trifluoromethyl) isonicotinamide], the pIC50 in assay [1] is 9.36; in assay [2], 8.53.
